Target: T1, SPI1085g2 (Spirulina subsalsa, UniProt A0ABT3L563)
T1 construct: gene K4A83_08105; second GAF domain (GAF2) only, residues 216-369 of SPI1085; N-terminal polyhistidine tag kept (pETDuet); expressed in E. coli BL21(DE3) with ho1::pcyA or ho1::pebS
T1 sequence (A0ABT3L563 216-369): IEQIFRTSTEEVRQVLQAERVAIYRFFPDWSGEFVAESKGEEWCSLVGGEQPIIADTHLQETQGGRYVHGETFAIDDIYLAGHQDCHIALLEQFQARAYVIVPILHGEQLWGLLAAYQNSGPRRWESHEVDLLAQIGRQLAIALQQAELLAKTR
Assay: zinc-induced fluorescence on SDS-PAGE; absorbance and acid-urea denaturation
Format: binding
Conditions: covalent, KPB pH […]

SMILES | zinc-induced fluorescence on SDS-PAGE; absorbance and acid-urea denaturation (chromophore assembled in E. coli co-expressing ho1 and pcyA) | zinc-induced fluorescence on SDS-PAGE; absorbance and acid-urea denaturation (chromophore assembled in E. coli co-expressing ho1 and pebS)
C/C=C1/C(=C/c2[nH]c(/C=C3N=C(/C=C4\NC(=O)C(CC)=C4C)C(C)=C\3CCC(=O)O)c(CCC(=O)O)c2C)NC(=O)[C@@H]1C [PCB, phycocyanobilin] | SPI1085g2 can covalently bind PCB, as demonstrated by the zinc-dependent fluorescence observed by SDS-PAGE | 
C=CC1=C(C)[C@@H](Cc2[nH]c(/C=C3N=C(/C=C4\NC(=O)[C@H](C)\C4=C/C)C(C)=C\3CCC(=O)O)c(CCC(=O)O)c2C)NC1=O [PEB, phycoerythrobilin] |  | resulted in highly efficient binding of PEB to SPI1085g2
